This experiment has as its target T1, Steroid C26-monooxygenase (Mycobacterium tuberculosis, UniProt P9WPP1).
T1 sequence (P9WPP1 whole entry): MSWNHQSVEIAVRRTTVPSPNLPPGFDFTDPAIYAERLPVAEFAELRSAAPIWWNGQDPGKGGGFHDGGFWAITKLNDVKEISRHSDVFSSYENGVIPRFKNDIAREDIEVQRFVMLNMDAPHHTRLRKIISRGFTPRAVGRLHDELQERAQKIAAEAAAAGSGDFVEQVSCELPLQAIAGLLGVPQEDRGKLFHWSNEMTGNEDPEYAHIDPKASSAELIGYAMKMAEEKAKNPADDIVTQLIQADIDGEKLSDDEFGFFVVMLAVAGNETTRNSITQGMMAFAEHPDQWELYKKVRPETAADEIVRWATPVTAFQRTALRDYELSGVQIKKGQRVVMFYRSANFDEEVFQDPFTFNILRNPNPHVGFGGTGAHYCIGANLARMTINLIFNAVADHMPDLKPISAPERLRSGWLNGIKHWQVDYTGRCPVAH
As to the kind of experiment: Inhibition of Mycobacterium tuberculosis H37Rv CYP125A1 expressed in Escherichia coli at 200 uM.

Regarding `CC1CCC(C(=O)NC(Cc2c[nH]c3ccccc23)C(=O)Nc2ccncc2)CC1` (stereo unspecified), the inhibition (commonly the percentage by which the read-out fell short of the control) at 200 µM stood at 30%.

Values taken from ChEMBL document CHEMBL1641528, “Reverse type I inhibitor of Mycobacterium tuberculosis CYP125A1” (Bioorg Med Chem Lett, 2011).
